Measured values taken from patent US7605190B2, “Polymerizable compositions with acylgermanium compounds” (Ivoclar Vivadent AG, priority 2006, dated 2009).
Read-outs that look alike come from different tables or passages of the source.

What was measured:
[1] = Photoinitiator activity by photo-DSC
Protocol: The activity of the photoinitiators was measured by means of photo-DSC (Differential Scanning Calorimetry) measurements on a DSC-50 device from Shimadzu, wherein the samples were irradiated alternatively with different dental lamps (Astalis 3: halogen lamp, wavelength range 400-500 nm, intensity 530 mW/cm^2; Bluephase C8: LED, wavelength range 430-490 nm, intensity 1100 mW/cm^2; Ivoclar Vivadent AG). The activity is characterized by the time of peak maximum (tmax), the polymerization rate (RP) which corresponds to the peak height, and the double bond conversion (DBC). The respective photoinitiators were dissolved in a resin mixture of D3MA:UDMA:bis-GMA=1:1:1 and then measured in an aluminum crucible by means of DSC. […]

[2] = known comparison photoinitiators; cited from earlier work
[3] = Absorption maximum (UV-VIS); format: physicochemical; conditions: own acylgermanium photoinitiators
[4] = Astralis 3 lamp (400-500 nm), 0.022 mmol PI per gram of resin
[5] = Bluephase C8 lamp (430-490 nm), 0.022 mmol PI per gram of resin

Question: For Cc1cc(C)c(C(=O)P(=O)(C(=O)c2c(C)cc(C)cc2C)c2ccccc2)c(C)c1 [Irg 819, bis(2,4,6-trimethylbenzoyl)phenylphosphine oxide, reference compound], which DBC [1, 4] is on record?
Answer: 59%

Question: And the “Rp × 10^−3” value [1, 4]?
Answer: 67.5 mol/(l × s)

Question: And the tmax [1, 4]?
Answer: 11 s

Question: What about the DBC [1, 5] of the same molecule?
Answer: 45%

Question: And the “Rp × 10^−3” value [1, 5]?
Answer: 43.5 mol/(l × s)

Question: And the tmax [1, 5]?
Answer: 17 s

Question: What about the DBC ([1]; PI concentration 0.0014 mmol/g) of the same molecule?
Answer: 42%

Question: What about the “Rp × 10^−3” value ([1]; PI concentration 0.0014 mmol/g) of the same molecule?
Answer: 30.4 mol/(l × s)

Question: And the tmax ([1]; PI concentration 0.0014 mmol/g)?
Answer: 23 s

Question: And the DBC ([1]; PI concentration 0.0055 mmol/g)?
Answer: 48%

Question: What about the “Rp × 10^−3” value ([1]; PI concentration 0.0055 mmol/g) of the same molecule?
Answer: 48.3 mol/(l × s)

Question: And the tmax ([1]; PI concentration 0.0055 mmol/g)?
Answer: 14 s

Question: And the absorption maximum [2]?
Answer: 397 nm

Question: With CC12CCC(C(=O)C1=O)C2(C)C (centres unmarked) [camphorquinone] as the molecule, how does the absorption maximum [2] read?
Answer: 468 nm

Question: With C[CH2][Ge]([CH2]C)([C](=O)c1ccccc1)[C](=O)c1ccccc1 [Bis-AG, bisbenzoyldiethylgermanium] as the molecule, how does the “reactivity compared with camphorquinone/amine” value ([1]; 15-fold dilution of the initiator) read?
Answer: comparable with camphorquinone/amine

Question: And the DBC [1, 4]?
Answer: 84%

Question: And the “Rp × 10^−3” value [1, 4]?
Answer: 99.2 mol/(l × s)

Question: And the tmax [1, 4]?
Answer: 7.8 s

Question: What about the DBC [1, 5] of the same molecule?
Answer: 72%

Question: What about the “Rp × 10^−3” value [1, 5] of the same molecule?
Answer: 98.5 mol/(l × s)

Question: And the tmax [1, 5]?
Answer: 7.8 s

Question: What about the “curing time compared with campherquinone/amine” value ([1]; D3MA:UDMA:bis-GMA=1:1:1) of the same molecule?
Answer: halved

Question: What about the DBC ([1]; PI concentration 0.0014 mmol/g) of the same molecule?
Answer: 56%

Question: What about the “Rp × 10^−3” value ([1]; PI concentration 0.0014 mmol/g) of the same molecule?
Answer: 61.0 mol/(l × s)

Question: What about the tmax ([1]; PI concentration 0.0014 mmol/g) of the same molecule?
Answer: 12 s

Question: What about the DBC ([1]; PI concentration 0.0055 mmol/g) of the same molecule?
Answer: 66%

Question: What about the “Rp × 10^−3” value ([1]; PI concentration 0.0055 mmol/g) of the same molecule?
Answer: 85.6 mol/(l × s)

Question: And the tmax ([1]; PI concentration 0.0055 mmol/g)?
Answer: 9 s

Question: What about the “polymerization rate (Rp) relative to camphorquinone in combination with an amine accelerator” value ([1]; same formulation, D3MA:UDMA:bis-GMA=1:1:1) of the same molecule?
Answer: almost double

Question: And the absorption maximum [3]?
Answer: 418.5 nm

Question: Which absorption maximum [3] does the source give for O=[C](c1ccccc1)[Ge]1([C](=O)c2ccccc2)[CH2]CCC[CH2]1 [Example 9, 1,1-bisbenzoyl-germinane] here?
Answer: 418.1 nm

Question: Which results are given for [CH3][Ge]([CH3])([CH3])[C](=O)c1ccccc1 [Mono-AG, benzoyltrimethylgermanium]?
Answer: DBC [1, 4]: 56%; Rp × 10^−3 [1, 4]: 51.0 mol/(l × s); tmax [1, 4]: 16 s; DBC [1, 5]: 49%; Rp × 10^−3 [1, 5]: 48.3 mol/(l × s); tmax [1, 5]: 16 s; DBC ([1]; PI concentration 0.0014 mmol/g): 30%; Rp × 10^−3 ([1]; PI concentration 0.0014 mmol/g): 16.4 mol/(l × s); tmax ([1]; PI concentration 0.0014 mmol/g): 52 s; DBC ([1]; PI concentration 0.0055 mmol/g): 48%; Rp × 10^−3 ([1]; PI concentration 0.0055 mmol/g): 36.2 mol/(l × s); tmax ([1]; PI concentration 0.0055 mmol/g): 24 s; absorption maximum [3]: 411.5 nm
